Source: publication PMC9862743 (Pharmaceuticals, 2022)
Entries after “also recorded” stand apart in the source; their conditions may differ.

Legend:
HER2 = molecular target: T1, HER2 (Homo sapiens, UniProt P04626); assay: HotSpot in vitro kinase assay, HER2; type: biochemical; conditions: single dose 10 µM compound, 10 µM ATP
T1 construct: purchased Reaction Biology Corp

EGFR = molecular target: T2, EGFR (Homo sapiens, UniProt P00533); assay: HotSpot in vitro kinase assay, EGFR; type: biochemical; conditions: for inhibition at 10 µM: single dose 10 µM compound, 10 µM ATP
T2 construct: purchased Reaction Biology Corp

FGFR1 = molecular target: T3, FGFR1 (Homo sapiens, UniProt P11362); assay: Kinase selectivity panel, FGFR1; type: biochemical; conditions: single dose 10 µM
T3 construct: purchased Reaction Biology Corp

c-MET = molecular target: T4, c-MET (Homo sapiens, UniProt P08581); assay: Kinase selectivity panel, c-MET; type: biochemical; conditions: single dose 10 µM
T4 construct: purchased Reaction Biology Corp

P38a/MAPK14 = molecular target: T5, P38a/MAPK14 (Homo sapiens, UniProt Q16539); assay: Kinase selectivity panel, P38a/MAPK14; type: biochemical; conditions: single dose 10 µM
T5 construct: purchased Reaction Biology Corp

KDR/VEGFR2 = molecular target: T6, KDR/VEGFR2 (Homo sapiens, UniProt P35968); assay: Kinase selectivity panel, KDR/VEGFR2; type: biochemical; conditions: single dose 10 µM
T6 construct: purchased Reaction Biology Corp

CDK2/cyclin A = molecular target: T7, CDK2/cyclin A (Homo sapiens, UniProt P24941); assay: Kinase selectivity panel, CDK2/cyclin A; type: biochemical; conditions: single dose 10 µM
T7 construct: purchased Reaction Biology Corp

T6 sequence (P35968 20-1356): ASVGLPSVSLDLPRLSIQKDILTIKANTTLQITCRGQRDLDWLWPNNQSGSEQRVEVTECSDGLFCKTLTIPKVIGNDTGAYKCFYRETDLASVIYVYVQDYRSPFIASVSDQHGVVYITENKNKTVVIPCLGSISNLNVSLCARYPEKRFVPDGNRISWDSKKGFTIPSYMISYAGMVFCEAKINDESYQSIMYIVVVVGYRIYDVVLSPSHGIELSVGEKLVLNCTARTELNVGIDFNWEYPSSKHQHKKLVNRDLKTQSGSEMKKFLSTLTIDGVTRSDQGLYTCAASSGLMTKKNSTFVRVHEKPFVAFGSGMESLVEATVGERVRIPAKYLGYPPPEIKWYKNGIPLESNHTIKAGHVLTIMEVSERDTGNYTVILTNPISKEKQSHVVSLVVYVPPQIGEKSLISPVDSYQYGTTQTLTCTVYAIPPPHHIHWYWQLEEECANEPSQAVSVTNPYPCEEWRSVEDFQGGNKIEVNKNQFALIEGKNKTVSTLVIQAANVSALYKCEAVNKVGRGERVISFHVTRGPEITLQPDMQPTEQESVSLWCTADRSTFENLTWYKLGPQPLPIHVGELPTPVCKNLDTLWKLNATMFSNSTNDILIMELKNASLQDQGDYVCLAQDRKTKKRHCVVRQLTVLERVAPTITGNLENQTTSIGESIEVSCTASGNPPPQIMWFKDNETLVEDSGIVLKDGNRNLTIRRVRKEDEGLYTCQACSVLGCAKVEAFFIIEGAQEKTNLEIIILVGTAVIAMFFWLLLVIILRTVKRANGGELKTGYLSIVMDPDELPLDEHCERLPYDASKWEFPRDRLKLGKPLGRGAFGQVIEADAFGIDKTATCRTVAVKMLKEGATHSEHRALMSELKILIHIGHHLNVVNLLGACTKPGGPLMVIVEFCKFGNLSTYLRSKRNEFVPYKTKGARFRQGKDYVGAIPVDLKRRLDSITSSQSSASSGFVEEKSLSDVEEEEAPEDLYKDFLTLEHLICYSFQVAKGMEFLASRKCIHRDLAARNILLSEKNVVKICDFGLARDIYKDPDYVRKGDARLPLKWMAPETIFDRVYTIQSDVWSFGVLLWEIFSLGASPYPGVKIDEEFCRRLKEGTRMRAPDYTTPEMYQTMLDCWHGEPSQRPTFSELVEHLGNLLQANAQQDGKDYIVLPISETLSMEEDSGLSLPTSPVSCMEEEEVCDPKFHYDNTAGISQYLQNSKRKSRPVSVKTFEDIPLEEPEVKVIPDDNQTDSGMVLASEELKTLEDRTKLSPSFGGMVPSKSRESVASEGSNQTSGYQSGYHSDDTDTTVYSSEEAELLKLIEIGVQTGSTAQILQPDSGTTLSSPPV
T2 sequence (P00533 25-1210): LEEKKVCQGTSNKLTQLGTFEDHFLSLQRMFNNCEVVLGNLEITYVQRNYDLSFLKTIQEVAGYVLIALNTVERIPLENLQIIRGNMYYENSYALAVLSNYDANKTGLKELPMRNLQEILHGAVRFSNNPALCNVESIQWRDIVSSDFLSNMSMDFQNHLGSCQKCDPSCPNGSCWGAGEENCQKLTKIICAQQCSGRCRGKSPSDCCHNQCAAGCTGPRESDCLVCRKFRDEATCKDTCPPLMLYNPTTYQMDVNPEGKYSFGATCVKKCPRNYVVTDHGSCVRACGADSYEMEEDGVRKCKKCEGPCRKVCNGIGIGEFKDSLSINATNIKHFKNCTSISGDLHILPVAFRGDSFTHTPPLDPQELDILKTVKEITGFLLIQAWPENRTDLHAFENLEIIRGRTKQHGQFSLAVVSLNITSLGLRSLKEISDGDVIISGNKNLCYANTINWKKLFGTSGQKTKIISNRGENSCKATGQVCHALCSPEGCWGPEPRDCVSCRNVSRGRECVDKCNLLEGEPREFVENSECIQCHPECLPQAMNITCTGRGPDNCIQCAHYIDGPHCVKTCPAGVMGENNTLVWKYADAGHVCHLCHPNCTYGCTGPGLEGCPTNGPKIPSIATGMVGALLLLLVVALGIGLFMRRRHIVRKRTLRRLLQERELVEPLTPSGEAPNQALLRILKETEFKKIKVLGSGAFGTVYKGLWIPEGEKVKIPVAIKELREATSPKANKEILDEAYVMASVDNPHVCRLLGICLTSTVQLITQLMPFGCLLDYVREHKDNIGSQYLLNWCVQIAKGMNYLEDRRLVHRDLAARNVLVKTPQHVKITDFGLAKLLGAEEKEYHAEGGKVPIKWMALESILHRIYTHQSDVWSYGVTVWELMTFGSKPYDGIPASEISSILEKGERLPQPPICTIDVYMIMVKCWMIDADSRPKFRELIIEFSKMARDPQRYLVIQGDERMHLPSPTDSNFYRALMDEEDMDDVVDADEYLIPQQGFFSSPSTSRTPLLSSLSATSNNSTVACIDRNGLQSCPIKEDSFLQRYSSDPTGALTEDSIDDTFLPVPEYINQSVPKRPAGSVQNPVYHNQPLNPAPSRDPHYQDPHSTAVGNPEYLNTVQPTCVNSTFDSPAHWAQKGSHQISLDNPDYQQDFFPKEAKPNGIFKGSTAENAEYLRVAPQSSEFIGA
T5 sequence (Q16539 whole entry): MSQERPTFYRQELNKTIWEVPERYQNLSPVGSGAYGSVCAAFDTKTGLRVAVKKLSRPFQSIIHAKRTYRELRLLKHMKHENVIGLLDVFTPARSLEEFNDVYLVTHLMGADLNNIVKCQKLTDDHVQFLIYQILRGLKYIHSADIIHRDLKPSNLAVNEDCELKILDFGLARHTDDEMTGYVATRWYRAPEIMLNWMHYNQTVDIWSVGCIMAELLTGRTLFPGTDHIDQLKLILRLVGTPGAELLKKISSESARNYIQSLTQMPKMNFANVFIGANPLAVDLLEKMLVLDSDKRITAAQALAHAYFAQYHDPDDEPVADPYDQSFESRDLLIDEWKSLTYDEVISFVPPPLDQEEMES
T1 sequence (P04626 23-1255): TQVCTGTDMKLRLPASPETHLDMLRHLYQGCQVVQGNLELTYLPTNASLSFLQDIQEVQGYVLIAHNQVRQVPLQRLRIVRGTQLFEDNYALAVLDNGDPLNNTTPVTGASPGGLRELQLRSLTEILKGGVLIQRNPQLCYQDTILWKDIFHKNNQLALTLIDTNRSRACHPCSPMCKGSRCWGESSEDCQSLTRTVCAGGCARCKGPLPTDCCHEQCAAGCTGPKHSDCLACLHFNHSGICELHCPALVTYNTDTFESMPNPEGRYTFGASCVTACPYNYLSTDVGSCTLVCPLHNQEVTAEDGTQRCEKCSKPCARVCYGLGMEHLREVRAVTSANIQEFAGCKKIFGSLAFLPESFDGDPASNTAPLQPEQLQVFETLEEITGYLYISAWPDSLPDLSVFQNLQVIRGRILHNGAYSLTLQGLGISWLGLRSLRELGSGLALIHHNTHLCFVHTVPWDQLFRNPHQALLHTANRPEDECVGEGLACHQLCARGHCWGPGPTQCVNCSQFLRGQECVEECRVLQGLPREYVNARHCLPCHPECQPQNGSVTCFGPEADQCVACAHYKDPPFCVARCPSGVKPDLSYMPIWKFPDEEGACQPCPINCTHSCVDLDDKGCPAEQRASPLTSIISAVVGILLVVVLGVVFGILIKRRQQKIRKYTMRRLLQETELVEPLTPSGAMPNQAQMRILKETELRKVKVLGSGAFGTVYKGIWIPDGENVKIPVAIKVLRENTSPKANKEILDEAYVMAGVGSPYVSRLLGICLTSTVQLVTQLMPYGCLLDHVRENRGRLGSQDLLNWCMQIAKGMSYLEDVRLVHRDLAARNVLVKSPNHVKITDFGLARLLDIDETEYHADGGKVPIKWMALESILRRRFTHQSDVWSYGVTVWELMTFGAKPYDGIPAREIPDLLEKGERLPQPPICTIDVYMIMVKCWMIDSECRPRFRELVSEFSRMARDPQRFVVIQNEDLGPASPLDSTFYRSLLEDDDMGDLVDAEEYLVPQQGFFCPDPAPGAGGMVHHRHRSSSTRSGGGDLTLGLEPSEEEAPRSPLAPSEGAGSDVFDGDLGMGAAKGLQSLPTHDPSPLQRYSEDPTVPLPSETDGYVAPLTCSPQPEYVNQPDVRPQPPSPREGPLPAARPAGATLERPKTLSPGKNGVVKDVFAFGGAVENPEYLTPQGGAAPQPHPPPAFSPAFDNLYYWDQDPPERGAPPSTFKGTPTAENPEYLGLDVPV
T3 sequence (P11362 22-822): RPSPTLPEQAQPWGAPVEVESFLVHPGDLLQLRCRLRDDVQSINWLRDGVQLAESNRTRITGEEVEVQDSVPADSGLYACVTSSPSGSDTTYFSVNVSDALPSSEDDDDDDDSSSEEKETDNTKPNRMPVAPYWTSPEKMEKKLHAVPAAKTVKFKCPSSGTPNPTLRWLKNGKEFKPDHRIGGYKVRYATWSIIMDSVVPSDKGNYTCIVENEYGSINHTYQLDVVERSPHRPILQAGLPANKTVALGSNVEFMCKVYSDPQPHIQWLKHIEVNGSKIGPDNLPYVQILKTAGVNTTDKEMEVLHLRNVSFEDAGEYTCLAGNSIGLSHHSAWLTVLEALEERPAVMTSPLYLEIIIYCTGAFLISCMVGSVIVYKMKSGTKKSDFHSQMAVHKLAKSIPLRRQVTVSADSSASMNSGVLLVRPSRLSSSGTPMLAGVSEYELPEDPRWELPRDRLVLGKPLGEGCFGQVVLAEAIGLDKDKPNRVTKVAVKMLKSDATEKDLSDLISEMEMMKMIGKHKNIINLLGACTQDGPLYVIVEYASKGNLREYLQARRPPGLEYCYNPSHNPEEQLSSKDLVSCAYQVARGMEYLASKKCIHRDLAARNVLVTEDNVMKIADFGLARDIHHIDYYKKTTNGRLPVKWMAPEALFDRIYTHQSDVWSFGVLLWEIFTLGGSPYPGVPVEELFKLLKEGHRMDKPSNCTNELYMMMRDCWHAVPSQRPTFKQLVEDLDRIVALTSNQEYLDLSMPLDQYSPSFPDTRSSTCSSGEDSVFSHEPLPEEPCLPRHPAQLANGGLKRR

Compound	inhibition at 10 µM (HER2)	inhibition at 10 µM (EGFR)	melting point	further results
COc1cc2ncnc(Nc3ccc4ncccc4c3)c2cc1OCCCn1ccnc1[N+](=O)[O-] [Compound 6a, 7-Methoxy-6-(3-(2-nitro-1H-imidazol-1-yl)propoxy)-N-(quinolin-6-yl)quinazolin-4-amine]	74.7%	98.8%	249 to 250 °C	
COc1cc2ncnc(Nc3ccc4ncccc4c3)c2cc1OCCCCn1ccnc1[N+](=O)[O-] [Compound 6b, 7-Methoxy-6-(4-(2-nitro-1H-imidazol-1-yl)butoxy)-N-(quinolin-6-yl)quinazolin-4-amine]	78%	99.3%	201 to 202 °C	
COc1cc2ncnc(Nc3ccc4ncccc4c3)c2cc1OCCCCCn1ccnc1[N+](=O)[O-] [Compound 6c, 7-Methoxy-6-((5-(2-nitro-1H-imidazol-1-yl)pentyl)oxy)-N-(quinolin-6-yl)quinazolin-4-amine]	90%	99.3%	194 to 195 °C	
COc1cc2ncnc(Nc3ccc4ncccc4c3)c2cc1OCCCCCCn1ccnc1[N+](=O)[O-] [Compound 6d, 7-Methoxy-6-((6-(2-nitro-1H-imidazol-1-yl)hexyl)oxy)-N-(quinolin-6-yl)quinazolin-4-amine]	79.7%	99.1%	176 to 177 °C	
COc1cc2ncnc(Nc3ccc(C#N)cc3)c2cc1OCCCn1ccnc1[N+](=O)[O-] [Compound 6e, 4-((7-Methoxy-6-(3-(2-nitro-1H-imidazol-1-yl)propoxy)quinazolin-4-yl)amino)benzonitrile]	8.78%	67.3%	245 to 246 °C	
COc1cc2ncnc(Nc3ccc(C#N)cc3)c2cc1OCCCCn1ccnc1[N+](=O)[O-] [Compound 6f, 4-((7-Methoxy-6-(4-(2-nitro-1H-imidazol-1-yl)butoxy)quinazolin-4-yl)amino)benzonitrile]	11.7%	76.5%	200 to 201 °C	
COc1cc2ncnc(Nc3ccc(C#N)cc3)c2cc1OCCCCCn1ccnc1[N+](=O)[O-] [Compound 6g, 4-((7-Methoxy-6-((5-(2-nitro-1H-imidazol-1-yl)pentyl)oxy)quinazolin-4-yl)amino)benzonitrile]	43.1%	91.8%	196 to 197 °C	
COc1cc2ncnc(Nc3ccc(C#N)cc3)c2cc1OCCCCCCn1ccnc1[N+](=O)[O-] [Compound 6h, 4-((7-Methoxy-6-((6-(2-nitro-1H-imidazol-1-yl)hexyl)oxy)quinazolin-4-yl)amino)benzonitrile]	47.3%	94.7%	191 to 192 °C	
COc1cc2ncnc(Nc3ccc(OCc4ccccn4)c(Cl)c3)c2cc1OCCCn1ccnc1[N+](=O)[O-] [Compound 6i, N-(3-Chloro-4-(pyridin-2-ylmethoxy)phenyl)-7-methoxy-6-(3-(2-nitro-1H-imidazol-1-yl)propoxy)quinazolin-4-amine]	87.2%	97.7%	184 to 185 °C	
COc1cc2ncnc(Nc3ccc(OCc4ccccn4)c(Cl)c3)c2cc1OCCCCn1ccnc1[N+](=O)[O-] [Compound 6j, N-(3-Chloro-4-(pyridin-2-ylmethoxy)phenyl)-7-methoxy-6-(4-(2-nitro-1H-imidazol-1-yl)butoxy)quinazolin-4-amine]	96.7%	99%		% Kinase Inhibition at 10 µM FGFR1 (FGFR1): almost no inhibitory activity; also recorded: poor to weak inhibitory activity; inhibition at 10 µM (FGFR1): 13.9%; % Kinase Inhibition at 10 µM c-MET (c-MET): almost no inhibitory activity; also recorded: poor to weak inhibitory activity; inhibition at 10 µM (c-MET): 19.3%; % Kinase Inhibition at 10 µM P38a/MAPK14 (P38a/MAPK14): almost no inhibitory activity; also recorded: poor to weak inhibitory activity; inhibition at 10 µM (P38a/MAPK14): -33.3%; IC50 (EGFR; 10-dose assay, 3-fold serial dilution starting at 10 µM): 1.8 nM; fold more potent than lapatinib over EGFR (EGFR; ratio of EGFR IC50 values): 6 fold; fold more potent than staurosporine over EGFR (EGFR; ratio of EGFR IC50 values): 50 fold; % Kinase Inhibition at 10 µM KDR/VEGFR2 (KDR/VEGFR2): almost no inhibitory activity; also recorded: poor to weak inhibitory activity; inhibition at 10 µM (KDR/VEGFR2): 10.3%; % Kinase Inhibition at 10 µM CDK2/cyclin A (CDK2/cyclin A): almost no inhibitory activity; also recorded: poor to weak inhibitory activity; inhibition at 10 µM (CDK2/cyclin A): -0.83%
COc1cc2ncnc(Nc3ccc(OCc4ccccn4)c(Cl)c3)c2cc1OCCCCCn1ccnc1[N+](=O)[O-] [Compound 6k, N-(3-Chloro-4-(pyridin-2-ylmethoxy)phenyl)-7-methoxy-6-((5-(2-nitro-1H-imidazol-1-yl)pentyl)oxy)quinazolin-4-amine]	91.2%	98.6%	158 to 159 °C	
COc1cc2ncnc(Nc3ccc(OCc4ccccn4)c(Cl)c3)c2cc1OCCCCCCn1ccnc1[N+](=O)[O-] [Compound 6l, N-(3-Chloro-4-(pyridin-2-ylmethoxy)phenyl)-7-methoxy-6-((6-(2-nitro-1H-imidazol-1-yl)hexyl)oxy)quinazolin-4-amine]	89%	98.6%	191 to 192 °C	
